Columns and labels:
Type in all cases: cell-based
human neutrophils = assay: Assay (e): mobilization of labeled arachidonic acid into 1-ether phospholipids in intact cells; settings: non-stimulated human neutrophils, 2 hrs
Method: Measurement of the effect of CoA-IT inhibitors on the transfer of [^3 H]arachidonate into 1-ether phospholipids in non-stimulated inflammatory cells can be accomplished by general application of the following specific method. Human neutrophils were isolated and resuspended (5×10^7 /ml) in Hanks Balanced Salt Solution (HBSS; Gibco). [5,6,8,9,11,12,14,15-^3 H]-Arachidonic acid (100 Ci/mmol; New England Nuclear) complexed to 200 μl HBSS containing 0.25 mg/ml HSA was added to the cell suspension (1 μCi/ml). The cells were incubated with gentle shaking at 37° C. for 5 min. The reaction was terminated by the addition of 40 ml ice-cold HBSS containing HSA (0.25 mg/ml). The cells were then removed from the supernatant fluid by centrifugation (225 g, 8 min). Unincorporated [^3 H]-arachidonic acid was completely removed by two more washes of HBSS containing 0.25 mg/mi HSA. The neutrophils were resuspended in fresh buffer, exposed to various concentrations of a CoA-IT inhibitor or its vehicle and incubated without stimulation for 2 hrs. […] The phospholipid subclasses were separated by TLC in benzene/hexane/ethyl ether (50:45:4, v/v), located by image analysis (Bioscan) and the amount of radioactivity in each class was determined by zonal scraping and liquid scintillation counting.

[1] = system: PGE2 release by human monocytes; assay: Assay (f): stimulated eicosanoid release by human monocytes, Prostaglandin E2; settings: Monocyte, 0.25 h, A23187 1 μM, 15 min
Method: (§1) Human Monocyte Isolation. Leukocyte-rich leukopaks obtained from Biological Specialties (Lansdale, Pa.) were collected from male volunteers who were not taking antiinflammatory drugs. Leukopaks were centrifuged (90×g for 15 min) twice to remove the platelet-rich plasma. The cell pellet was washed by centrifugation and resuspended in HBSS without Ca^2+ or Mg^2+. Histopaque 1077 was layered under the cell suspension and centrifuged at 400×g for 30 min to obtain the buffy coat. The interfacial buffy coat, containing monocytes and lymphocytes, was removed and saved. The buffy coat was washed twice with HBSS Without Ca^2+ or Mg^2+ by centrifugation. The cell pellet (4-6×10^8 cells/30 mls) was resuspended in iso-osmotic media (RPMI-1640, 10% heat inactivated fetal bovine serum (FBS), 0.2 mM L-glutamine, 2.5 mM HEPES) and layered over an equal volume of 46% Percol mixture (10X PBS/Percol; 9.25/0.75) and 54% iso-osmotic media and centrifuged for 30 min at 1000×g (Marshall and Roshak, Biochem. Cell Biol. 71: 331-339, 1993). The monocyte population located at the interface of the Percoll gradient was removed and washed twice in HBSS without Ca^2+ or Mg^2+.
(§2) Measurement of Stimuli-Induced Eicosanoid Release Monocytes (5×10^6 /ml) were incubated as a suspension in serum-free RPMI-1640 medium containing the vehicle DMSO (<1%) or drug for 30 min at 27° C. after which vehicle or stimuli was added for the indicated time. The stimulating agent is solubilized in DMSO and appropriate vehicle controls were included in all experiments. The amount of stimuli was chosen from the linear portion of a concentration versus product curve usually representing 60-80% maximal stimulation over the indicated incubation time at 37° C. (A23187, 1 μM,(15 min). The reaction was terminated by reduction of pH through addition of citric acid and centrifugation (10 min, 400×g, 4° C.). Cell viability was monitored before and after experiments using trypan blue exclusion. The cell-free media was decanted and stored at -70° C. until analyzed. Prostaglandin E2 and LTC4 were directly measured in cell-free media using enzyme immunoassay (EIA) kits purchased from Caymen Chemical Co. (Ann Arbor, Mich.). Sample or standard dilutions were made with appropriate media and analyzed in triplicate. Results were obtained by extrapolation from a standard curve prepared in the media and expressed as pg or ng/ml of sample.

[2] = system: mouse bone marrow-derived mast cells; assay: Assay (e): arachidonate content of cellular phospholipids; settings: 24-48 hours in culture
Method: The following is the method for assessing the ability of a compound to alter arachidonate content of cellular phospholipids, which can be generalized for any desired cell. Specifically, mouse bone marrow-derived mast cells are removed from culture and provided with exogenous [^3 H]arachidonic acid for 30 minutes. The labeled arachidonic acid which had not been incorporated into the cells is then removed by washing the cells 2 times with an albumin-containing buffer. At that point, the cells are treated with various concentrations of CoA-IT inhibitors and then placed back in culture for 24-48 hours. The phospholipids are extracted by the method of Bligh and Dyer [Can. J. Biochem. Physiol. (1959) 37,911-917] and phospholipids separated by normal phase HPLC by the method of Chilton [Methods Enzymol. (1990)187, 157-166]. The radioactive and mole quantities of arachidonate in complex lipids are determined. At this point, cellular lipid extracts are treated with KOH (0.5M) to remove fatty acids from complex lipids (phospholipids) and the quantities of arachidonate in these extracts can then be determined by various methods, including gas chromatography and mass spectrometry (Chilton [Methods Enzymol. (1990)187, 157-166]).

[3] = system: LTC4 release by human monocytes; assay: Assay (f): stimulated eicosanoid release by human monocytes, LTC4; settings: Monocyte, 0.25 h, A23187 1 μM, 15 min
Method: as §1, §2

Structure (SMILES): O=C(O)c1ccccc1Oc1ccc(C(F)(F)F)cc1NS(=O)(=O)c1cc(C(F)(F)F)cc(C(F)(F)F)c1 [Example 1, 2-[2-[3,5-Bis(trifluoromethyl)phenylsulfonamido]-4-trifluoromethylphenoxy]benzoic acid]
- blocking the movement of arachidonic acid into 1-ether phospholipids (human neutrophils): positive activity
- IC50 [1]: > 30000 nM
- decreasing the arachidonic content [2]: positive activity
- IC50 [3]: 300 nM
